Counter-ions that a name gives are not always drawn.
Legend:
calcium channel (ileum) = calcium channel (ileum) (Rattus norvegicus, UniProt P22002); assay: In vitro calcium channel antagonistic effect (ileum): inhibition of high potassium contraction of ileum samples; settings: high potassium (45.0 mM KCl) contraction, 10^−7 M test compound, 30 minute pretreatment, read-out: Inhibition rate (%) (conc.: 10^−7M)
Protocol: In vitro calcium channel antagonistic effect (ileum)
(§1) The ileum of each of male Crj:CD rats (8 to 12 weeks old) was extracted at a part 3 cm apart from the ileocecal region. The ileum sample was suspended in 37° C. Tyrode's solution through which a gaseous mixture (95% of oxygen and 5% of carbon dioxide) was passed. For examining the change in tensile strength of the ileum, the isotonicity thereof was recorded on a pen-writing recorder through a transducer. The high potassium contraction was caused by exchanging the nutrient solution from Tyrode's solution to potassium-Tyrode's solution (94.6 mM of NaCl, 45.0 mM of KCl, 1.8 mM of CaCl2, 1.04 mM of MgCl2, 0.4 mM of NaH2PO4, 11.9 mM of NaHCO3 and 5.55 mM of glucose). The high potassium contraction-inhibiting effect of a test compound was evaluated by 30 minute pretreatment. Compound A described in European Patent No. 0404359A1 and compound B described in International Patent No. 9733885A1 were used as comparative substances. The calcium channel antagonistic activity was shown as the rate (%) of inhibition of control of high-calcium contraction with 10^−7 M test compound.

[1] = target: calcium channel (blood vessel, thoracic aorta) (Rattus norvegicus, UniProt P22002); assay: In vitro calcium channel antagonistic effect (blood vessel): inhibition of high potassium contraction of helical thoracic aorta samples; settings: high potassium (45.0 mM KCl) contraction, 10^−7 M test compound, 30 minute pretreatment, read-out: Inhibition rate (%) (conc: 10^−7 M)
Protocol: In vitro calcium channel antagonistic effect (blood vessel)
as §1, with “thoracic aorta was extracted from” for “ileum of”, “to prepare helical samples.” for “was extracted at a part 3 cm apart from the ileocecal region.”, “blood vessel samples were” for “ileum sample was”, “blood vessel,” for “ileum,”, “isometry” for “isotonicity”

Chain of calcium channel (blood vessel, thoracic aorta) (P22002 whole entry): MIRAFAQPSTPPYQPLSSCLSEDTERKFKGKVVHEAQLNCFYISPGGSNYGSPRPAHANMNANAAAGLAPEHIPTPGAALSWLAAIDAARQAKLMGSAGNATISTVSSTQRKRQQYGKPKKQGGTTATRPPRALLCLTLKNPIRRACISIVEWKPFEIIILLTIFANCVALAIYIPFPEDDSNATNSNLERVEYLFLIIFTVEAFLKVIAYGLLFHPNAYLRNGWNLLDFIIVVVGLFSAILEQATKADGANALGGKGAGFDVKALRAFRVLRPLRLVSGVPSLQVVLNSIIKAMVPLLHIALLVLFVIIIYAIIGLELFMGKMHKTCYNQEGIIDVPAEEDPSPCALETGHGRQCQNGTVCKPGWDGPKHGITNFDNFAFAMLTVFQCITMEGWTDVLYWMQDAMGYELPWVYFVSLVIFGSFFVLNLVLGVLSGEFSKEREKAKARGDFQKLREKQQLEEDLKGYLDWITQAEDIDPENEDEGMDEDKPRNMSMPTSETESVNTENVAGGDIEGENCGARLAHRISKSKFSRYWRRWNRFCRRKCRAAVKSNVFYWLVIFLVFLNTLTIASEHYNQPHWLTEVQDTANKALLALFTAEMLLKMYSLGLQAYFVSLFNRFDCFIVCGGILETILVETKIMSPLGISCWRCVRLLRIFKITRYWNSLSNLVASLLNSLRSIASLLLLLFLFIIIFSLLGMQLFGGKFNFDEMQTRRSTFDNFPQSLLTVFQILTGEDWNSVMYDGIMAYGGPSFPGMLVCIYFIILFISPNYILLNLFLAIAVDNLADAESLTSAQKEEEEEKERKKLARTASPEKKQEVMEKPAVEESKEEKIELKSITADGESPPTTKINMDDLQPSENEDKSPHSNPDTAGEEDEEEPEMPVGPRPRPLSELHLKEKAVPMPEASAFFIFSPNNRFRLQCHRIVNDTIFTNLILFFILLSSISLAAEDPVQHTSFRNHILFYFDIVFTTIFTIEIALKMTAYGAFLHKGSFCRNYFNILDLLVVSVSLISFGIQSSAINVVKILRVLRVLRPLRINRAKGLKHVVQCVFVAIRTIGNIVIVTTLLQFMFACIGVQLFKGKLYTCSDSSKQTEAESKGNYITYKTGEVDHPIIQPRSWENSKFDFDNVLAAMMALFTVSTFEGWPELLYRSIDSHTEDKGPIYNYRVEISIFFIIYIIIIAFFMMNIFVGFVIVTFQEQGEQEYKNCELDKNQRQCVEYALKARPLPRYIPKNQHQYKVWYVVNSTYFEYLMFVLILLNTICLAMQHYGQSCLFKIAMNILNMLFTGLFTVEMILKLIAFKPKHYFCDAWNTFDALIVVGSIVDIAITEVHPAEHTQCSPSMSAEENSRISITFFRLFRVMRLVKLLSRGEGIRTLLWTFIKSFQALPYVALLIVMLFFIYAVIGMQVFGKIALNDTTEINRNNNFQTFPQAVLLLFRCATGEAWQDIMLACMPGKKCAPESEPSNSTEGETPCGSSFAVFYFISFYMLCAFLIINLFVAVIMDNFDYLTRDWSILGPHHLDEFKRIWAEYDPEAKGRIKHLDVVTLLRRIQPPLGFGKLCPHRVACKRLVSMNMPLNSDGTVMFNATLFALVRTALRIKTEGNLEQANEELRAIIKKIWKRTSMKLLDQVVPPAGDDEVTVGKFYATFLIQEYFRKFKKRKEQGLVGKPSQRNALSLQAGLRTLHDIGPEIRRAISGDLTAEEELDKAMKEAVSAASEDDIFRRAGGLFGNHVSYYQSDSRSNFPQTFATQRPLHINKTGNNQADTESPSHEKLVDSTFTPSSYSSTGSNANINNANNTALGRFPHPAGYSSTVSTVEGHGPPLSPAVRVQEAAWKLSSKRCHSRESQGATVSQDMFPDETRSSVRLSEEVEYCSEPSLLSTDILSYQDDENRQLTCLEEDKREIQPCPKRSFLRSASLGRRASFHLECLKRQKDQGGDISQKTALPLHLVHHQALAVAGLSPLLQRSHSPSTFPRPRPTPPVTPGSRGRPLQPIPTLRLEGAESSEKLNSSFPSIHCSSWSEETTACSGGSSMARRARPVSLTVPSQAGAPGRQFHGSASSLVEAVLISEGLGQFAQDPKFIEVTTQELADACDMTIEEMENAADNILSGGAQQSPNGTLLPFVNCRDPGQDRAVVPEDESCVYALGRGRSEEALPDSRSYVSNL
Chain of calcium channel (ileum) (P22002 whole entry): as above

## COc1ccc(CCN(C)CCN2c3ccccc3COc3ccccc32)cc1.Cl [Example 14, 5,11-Dihydro-5-[2-[N-(4-methoxyphenethyl)-N-methylamino]ethyl]dibenzo[b,e][1,4]oxazepine Hydrochloride]
Calcium channel (ileum)
  inhibition at 0.1 µM: 105%
[1]
  inhibition at 0.1 µM: 43%
other
  melting point: 139 to 140 °C

## COc1ccc(CCCN2CCCC[C@@H]2CN2c3ccccc3COc3ccccc32)cc1 [Example 4, (R)-5,11-Dihydro-5-[1-[3-(4-methoxyphenyl)propyl]piperidine-2-ylmethyl]dibenzo[b,e][1,4]oxazepine Hydrochloride]
Calcium channel (ileum)
  inhibition at 0.1 µM: 64%
[1]
  inhibition at 0.1 µM: 32%

## Clc1ccc(CCN2CCCC[C@@H]2CN2c3ccccc3COc3ccccc32)cc1 [Example 6, (R)-5-[1-(4-chlorophenethyl)piperidine-2-ylmethyl]-5,11-dihydrodibenzo [b,e][1,4]oxazepine Hydrochloride]
Calcium channel (ileum)
  inhibition at 0.1 µM: 75%
[1]
  inhibition at 0.1 µM: 25%

## c1ccc2c(c1)COc1ccccc1N2[C@@H]1CCN(CCc2ccc3c(c2)OCO3)C1 [Example 12, (R)-5,11-Dihydro-5-[1-(3,4-methylenedioxyphenethyl)pyrrolidine-3-yl]dibenzo[b,e][1,4]oxazepine Hydrochloride]
Calcium channel (ileum)
  inhibition at 0.1 µM: 77%
[1]
  inhibition at 0.1 µM: 51%

## COc1cccc(CCN(C)CCN2c3ccccc3COc3ccccc32)c1 [Example 15, 5,11-Dihydro-5-[2-[N-(3-methoxyphenethyl)-N-methylamino]ethyl]dibenzo[b,e][1,4]oxazepine Hydrochloride]
Calcium channel (ileum)
  inhibition at 0.1 µM: 82%
[1]
  inhibition at 0.1 µM: 29%

## COc1ccc(CCN2CCCC2CN2c3ccccc3CSc3ccccc32)cc1 (centres unmarked) [Compound A, reference compound]
Calcium channel (ileum)
  inhibition at 0.1 µM: 48%
[1]
  inhibition at 0.1 µM: 9%

## COc1ccc(CCN2CC[C@@H](N3c4ccccc4COc4ccccc43)C2)cc1.Cl [Example 8, (R)-5,11-Dihydro-5-[1-(4-methoxyphenethyl)pyrrolidine-3-yl] dibenzo[b,e][1,4]oxazepine Hydrochloride]
Calcium channel (ileum)
  inhibition at 0.1 µM: 100%
[1]
  inhibition at 0.1 µM: 52%
other
  melting point: 224 to 226 °C

## CN(CCc1cccc(N(C)C)c1)CCN1c2ccccc2COc2ccccc21 [Example 20, 5,11-Dihydro-5-[2-[N-(3-dimethylaminophenethyl)-N-methylamino]ethyl]dibenzo[b,e][1,4]oxazepine Dihydrochloride]
Calcium channel (ileum)
  inhibition at 0.1 µM: 50%
[1]
  inhibition at 0.1 µM: 28%

## COc1cccc(CCN2CCCC[C@@H]2CN2c3ccccc3COc3ccccc32)c1 [Example 3, (R)-5,11-Dihydro-5-[1-(3-methoxyphenethyl)piperidine-2-ylmethyl] dibenzo[b,e][1,4]oxazepine Hydrochloride]
Calcium channel (ileum)
  inhibition at 0.1 µM: 61%
[1]
  inhibition at 0.1 µM: 33%

## COc1ccc(CCCN(C)CCN2c3ccccc3COc3ccccc32)cc1 [Example 16, 5,11-Dihydro-5-[2-[N -[3-(4-methoxyphenyl)propyl]-N-methylamino]ethyl]dibenzo[b,e][1,4]oxazepine Hydrochloride]
Calcium channel (ileum)
  inhibition at 0.1 µM: 82%
[1]
  inhibition at 0.1 µM: 28%

## COc1ccc(CCN2CCCC[C@@H]2CN2c3ccccc3COc3ccccc32)cc1.Cl [Example 1, (R)-5,11-Dihydro-5-[1-(4-methoxyphenethyl)piperidine-2-ylmethyl]dibenzo[b,e][1,4]oxazepine Hydrochloride]
Calcium channel (ileum)
  inhibition at 0.1 µM: 90%
[1]
  inhibition at 0.1 µM: 38%
other
  melting point: 199 to 201 °C

## CN(C)c1ccc(CCN2CC[C@@H](N3c4ccccc4COc4ccccc43)C2)cc1.Cl [Example 10, (R)-5,11-Dihydro-5-[1-(4-dimethylaminophenethyl)pyrrolidine-3-yl]dibenzo[b,e][1,4]oxazepine Hydrochloride]
Calcium channel (ileum)
  inhibition at 0.1 µM: 116%
[1]
  inhibition at 0.1 µM: 59%
other
  melting point: 219 to 220 °C

## CN(CCc1ccc2c(c1)OCO2)CCN1c2ccccc2COc2ccccc21 [Example 17, 5,11-Dihydro-5-[2-[N-methyl-N-(3,4-methylenedioxyphenethyl)amino]ethyl]dibenzo[b,e][1,4]oxazepine Hydrochloride]
Calcium channel (ileum)
  inhibition at 0.1 µM: 78%
[1]
  inhibition at 0.1 µM: 30%

## CN(CCc1ccc(N(C)C)cc1)CCN1c2ccccc2COc2ccccc21 [Example 19, 5,11-Dihydro-5-[2-[N-(4-dimethylaminophenethyl)-N-methylamino]ethyl]dibenzo[b,e][1,4]oxazepine Dihydrochloride]
Calcium channel (ileum)
  inhibition at 0.1 µM: 76%
[1]
  inhibition at 0.1 µM: 39%

## c1ccc2c(c1)COc1ccccc1N2C[C@H]1CCCCN1CCc1ccc2c(c1)OCO2 [Example 5, (R)-5,11-Dihydro-5-[1-(3,4-methylenedioxyphenethyl)piperidine-2-yl-methyl] dibenzo[b,e][1,4]oxazepine Hydrochloride]
Calcium channel (ileum)
  inhibition at 0.1 µM: 66%
[1]
  inhibition at 0.1 µM: 27%

## Clc1ccc(CCN2CC[C@@H](N3c4ccccc4COc4ccccc43)C2)cc1 [Example 13, (R)-5-[1-(4-chlorophenethyl)pyrrolidine-3-yl]-5,11-dihydrodibenzo[b,e][1,4] oxazepine Hydrochloride]
Calcium channel (ileum)
  inhibition at 0.1 µM: 76%
[1]
  inhibition at 0.1 µM: 38%

## CN(C)c1ccc(CCN2CCCC[C@@H]2CN2c3ccccc3COc3ccccc32)cc1 [Example 7, (R)-5,11-Dihydro-5-[1-(4-dimethylaminophenethyl)piperidine-2-ylmethyl]dibenzo[b,e][1,4]oxazepine Dihydrochloride]
Calcium channel (ileum)
  inhibition at 0.1 µM: 78%
[1]
  inhibition at 0.1 µM: 23%

## COc1ccc(CCCN2CC[C@@H](N3c4ccccc4COc4ccccc43)C2)cc1 [Example 11, (R)-5,11-Dihydro-5-[1-[3-(4-methoxyphenyl)propyl]pyrrolidine-3-yl]dibenzo[b,e][1,4]oxazepine Hydrochloride]
Calcium channel (ileum)
  inhibition at 0.1 µM: 83%
[1]
  inhibition at 0.1 µM: 61%

## CN(CCc1ccc(Cl)cc1)CCN1c2ccccc2COc2ccccc21 [Example 18, 5-[2-[N-(4-chlorophenethyl)-N-methylamino]ethyl]-5,11-dihydrodibenzo [b,e][1,4]oxazepine Hydrochloride]
Calcium channel (ileum)
  inhibition at 0.1 µM: 70%
[1]
  inhibition at 0.1 µM: 34%

## COc1ccc(CCN2CCC[C@@H]2CN2c3ccccc3COc3ccccc32)cc1 [Compound B, reference compound]
Calcium channel (ileum)
  inhibition at 0.1 µM: 67%
[1]
  inhibition at 0.1 µM: 17%
